Measurements published in ChEMBL document CHEMBL1201862, “PubChem BioAssay data set” (2004).
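Briefly, cells in 96-well plates were exposed to five compound concentrations for 48 h, and endpoints were estimated by linear interpolation. Abbreviation: GI50, concentration required for 50% inhibition of growth.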 Activity calls are given as the source filed them. Rule as the data show it: active = GI50 up to about 1.1 µM and inactive = higher. Starred links: 1 amine or outer side, 2 acyl side, 3 side chain; linkers in the order of their positions; H or OH if unused. Positions of bridges follow the written chain, without caps; N, C: chain ends. Non-standard residues stand in square brackets, D forms with d. Residues, ends and D or L forms follow the SMILES beside them. ξ: configuration not given here. X37 = CC[C@H](C)[C@@H](N[*:1])[C@@H](O)CC(=O)O[C@H](C(=O)[C@H](C)C(=O)[*:2])C(C)C; NMeY = CN[C@@H](Cc1ccc(O)cc1)C(=O)O; dNMeL = CN[C@H](CC(C)C)C(=O)O; ξΔPro = O=C(O)C1C=CCN1

Assays:
Assay in all cases: growth of human tumour cells (NCI), 48 h
SR = test system: SR
A498 = test system: A498
MDA-N = test system: MDA-N
NCI-H460 = test system: NCI-H460
K562 = test system: K562
SN12C = test system: SN12C
MDA-MB-231 = test system: MDA-MB-231
HL-60 = test system: HL-60
UO-31 = test system: UO-31
IGROV-1 = test system: IGROV-1
NCI-H23 = test system: NCI-H23
BT-549 = test system: BT-549
OVCAR-4 = test system: OVCAR-4
NCI-H226 = test system: NCI-H226
HOP-92 = test system: HOP-92
LOX IMVI = test system: LOX IMVI
OVCAR-5 = test system: OVCAR-5
UACC-62 = test system: UACC-62
RPMI-8226 = test system: RPMI-8226
KM12 = test system: KM12

Row | SMILES | GI50 (SR) | GI50 (A498) | GI50 (MDA-N) | GI50 (NCI-H460) | GI50 (K562) | GI50 (SN12C) | GI50 (MDA-MB-231) | GI50 (HL-60) | GI50 (UO-31) | GI50 (IGROV-1) | GI50 (NCI-H23) | GI50 (BT-549) | GI50 (OVCAR-4) | GI50 (NCI-H226) | GI50 (HOP-92) | GI50 (LOX IMVI) | GI50 (OVCAR-5) | GI50 (UACC-62) | GI50 (RPMI-8226) | GI50 (KM12)
1 | CC1(C)OC2COC(c3n[nH]c4c(=O)[nH]c(=O)[nH]c34)C2O1 (stereo not given) | > 100 µM (inactive) | > 100 µM (inactive) | > 100 µM (inactive) | > 100 µM (inactive) | > 100 µM (inactive) | > 100 µM (inactive) | > 100 µM (inactive) | > 100 µM (inactive) | > 100 µM (inactive) | > 100 µM (inactive) | > 100 µM (inactive) | > 100 µM (inactive) | > 100 µM (inactive) | > 100 µM (inactive) | 74 µM (inactive) | > 100 µM (inactive) | > 100 µM (inactive) | > 100 µM (inactive) | > 100 µM (inactive) | > 100 µM (inactive)
2 | CCCCC(=O)NC1(c2cc3ccccc3s2)CCCCC1 | > 100 µM (inactive) | > 100 µM (inactive) | > 100 µM (inactive) | > 100 µM (inactive) | > 100 µM (inactive) | > 100 µM (inactive) | > 100 µM (inactive) | 4.89 µM (inactive) | > 100 µM (inactive) | > 100 µM (inactive) | > 100 µM (inactive) | > 100 µM (inactive) | > 100 µM (inactive) | > 100 µM (inactive) | > 100 µM (inactive) | > 100 µM (inactive) | > 100 µM (inactive) | 62.1 µM (inactive) | 8.81 µM (inactive) | > 100 µM (inactive)
3 | Cc1cn(C2CC(O)C(COC(N)=O)O2)c(=O)[nH]c1=O (stereo not given) | > 100 µM (inactive) | > 100 µM (inactive) | > 100 µM (inactive) | > 100 µM (inactive) | > 100 µM (inactive) | > 100 µM (inactive) | > 100 µM (inactive) | > 100 µM (inactive) | > 100 µM (inactive) | > 100 µM (inactive) | > 100 µM (inactive) | > 100 µM (inactive) | > 100 µM (inactive) | > 100 µM (inactive) | > 100 µM (inactive) | > 100 µM (inactive) | > 100 µM (inactive) | > 100 µM (inactive) | > 100 µM (inactive) | > 100 µM (inactive)
4 | CC12CCC(C(=O)O1)C(C)(C)O2 (stereo not given) | > 100 µM (inactive) | > 100 µM (inactive) | > 100 µM (inactive) | > 100 µM (inactive) | > 100 µM (inactive) | > 100 µM (inactive) | > 100 µM (inactive) | > 100 µM (inactive) | > 100 µM (inactive) | > 100 µM (inactive) | > 100 µM (inactive) | > 100 µM (inactive) | > 100 µM (inactive) | > 100 µM (inactive) | > 100 µM (inactive) | > 100 µM (inactive) | > 100 µM (inactive) | > 100 µM (inactive) | > 100 µM (inactive) | > 100 µM (inactive)
5 | Cc1cc(/N=N/c2c(O)ccc3ccccc23)ccc1/N=N/c1cccc([N+](C)(C)C)c1 | 7.69 µM (inactive) | 44.7 µM (inactive) | 12.9 µM (inactive) | 9.42 µM (inactive) | 13.2 µM (inactive) | 7.11 µM (inactive) | 8.57 µM (inactive) | 2.38 µM (inactive) | 15.7 µM (inactive) | 2.87 µM (inactive) | 13.3 µM (inactive) | 3.08 µM (inactive) | > 27.1 µM (inactive) | 6.41 µM (inactive) | 15.6 µM (inactive) | 4.56 µM (inactive) | 17.7 µM (inactive) | 14.7 µM (inactive) | 4.22 µM (inactive) | 3.37 µM (inactive)
6 | CCC1=NC(N/N=C/c2ccco2)=N/C1=C\c1ccco1 | > 100 µM (inactive) | > 100 µM (inactive) | > 100 µM (inactive) | 52 µM (inactive) | 62.1 µM (inactive) | > 100 µM (inactive) | > 100 µM (inactive) | > 100 µM (inactive) | > 100 µM (inactive) | > 100 µM (inactive) | > 100 µM (inactive) | > 100 µM (inactive) | > 100 µM (inactive) | > 100 µM (inactive) | > 100 µM (inactive) | > 100 µM (inactive) | > 100 µM (inactive) | > 100 µM (inactive) | 40.9 µM (inactive) | > 100 µM (inactive)
7 | CC[C@H](C)[C@H]1NC(=O)[C@@H](NC(=O)[C@@H](CC(C)C)N(C)C(=O)C2C=CCN2)[C@@H](C)OC(=O)[C@H](Cc2ccc(OC)cc2)N(C)C(=O)[C@@H]2CCCN2C(=O)[C@H](CC(C)C)NC(=O)[C@@H](C)C(=O)[C@H](C(C)C)OC(=O)C[C@@H]1O (stereo not given in full) (H-[ξΔPro][dNMeL]T[X37]LP[NMeY](Me); ester 3-C) | < 0.005 µM (active) | 0.00594 µM (active) | < 0.005 µM (active) | < 0.005 µM (active) | < 0.005 µM (active) | < 0.005 µM (active) | < 0.005 µM (active) | 0.00703 µM (active) | 0.0204 µM (active) | < 0.005 µM (active) | < 0.005 µM (active) | < 0.005 µM (active) | < 0.005 µM (active) | < 0.005 µM (active) | < 0.005 µM (active) | < 0.005 µM (active) | < 0.005 µM (active) | < 0.005 µM (active) | < 0.005 µM (active) | < 0.005 µM (active)
